Results from patent US12297235B2, “Synthetic peptide compounds and methods of use” (REALTA HOLDINGS, LLC, priority 2015, dated 2025).
Square brackets hold non-standard residues; d marks the D form. Peptide text beside a SMILES is read from it. PEG24 = NCCOCCOCCOCCOCCOCCOCCOCCOCCOCCOCCOCCOCCOCCOCCOCCOCCOCCOCCOCCOCCOCCOCCOCCOCCC(=O)O; Sar = CNCC(=O)O

Assay: Solubility in water
Type: physicochemical
Details: Table 7, PEGylated and Sar/Ala substitution peptides

Structure (SMILES) | Solubility in water
CC[C@H](C)[C@H](N)C(=O)N[C@@H](C)C(=O)N[C@@H](CC(C)C)C(=O)N[C@H](C(=O)N[C@@H](CC(C)C)C(=O)N[C@@H](C)C(=O)N1CCC[C@H]1C(=O)N[C@H](C(=O)N[C@@H](CS)C(=O)N[C@@H](CS)C(=O)N[C@@H](CCC(N)=O)C(=O)N[C@@H](C)C(=O)N[C@@H](CCCNC(=N)N)C(=O)N[C@@H](C)C(=O)N[C@@H](C)C(=O)NCCOCCOCCOCCOCCOCCOCCOCCOCCOCCOCCOCCOCCOCCOCCOCCOCCOCCOCCOCCOCCOCCOCCOCCOCCC(=O)O)[C@@H](C)CC)[C@@H](C)CC [E6AE12A-dPEG24] (H-IALILAPICCQARAA[PEG24]-OH) | Yes
CC[C@H](C)[C@H](N)C(=O)N[C@@H](C)C(=O)N[C@@H](CC(C)C)C(=O)N[C@H](C(=O)N[C@@H](CC(C)C)C(=O)N[C@@H](CCC(=O)O)C(=O)N1CCC[C@H]1C(=O)N[C@H](C(=O)N[C@@H](CS)C(=O)N[C@@H](CS)C(=O)N[C@@H](CCC(N)=O)C(=O)N[C@@H](CCC(=O)O)C(=O)N[C@@H](CCCNC(=N)N)C(=O)N(C)CC(=O)N[C@@H](C)C(=O)NCCOCCOCCOCCOCCOCCOCCOCCOCCOCCOCCOCCOCCOCCOCCOCCOCCOCCOCCOCCOCCOCCOCCOCCOCCC(=O)O)[C@@H](C)CC)[C@@H](C)CC [PA-A14Sar-dPEG24] | Yes
CC[C@H](C)[C@H](N)C(=O)N[C@@H](C)C(=O)N[C@@H](CC(C)C)C(=O)N[C@H](C(=O)N[C@@H](CC(C)C)C(=O)N[C@@H](CCC(=O)O)C(=O)N1CCC[C@H]1C(=O)N[C@H](C(=O)N(C)CC(=O)N[C@@H](C)C(=O)N[C@@H](CCC(N)=O)C(=O)N[C@@H](CCC(=O)O)C(=O)N[C@@H](CCCNC(=N)N)C(=O)N[C@@H](C)C(=O)N[C@@H](C)C(=O)O)[C@@H](C)CC)[C@@H](C)CC [PA-C9SarC10A] (H-IALILEPI[Sar]AQERAA-OH) | Yes
CC[C@H](C)[C@H](N)C(=O)N[C@@H](C)C(=O)N[C@@H](CC(C)C)C(=O)N[C@H](C(=O)N[C@@H](CC(C)C)C(=O)N[C@@H](CCC(=O)O)C(=O)N1CCC[C@H]1C(=O)N[C@H](C(=O)N(C)CC(=O)N[C@@H](CCC(N)=O)C(=O)N[C@@H](CCC(=O)O)C(=O)N[C@@H](CCCNC(=N)N)C(=O)N[C@@H](C)C(=O)N[C@@H](C)C(=O)O)[C@@H](C)CC)[C@@H](C)CC [PA-C9SarD10] (H-IALILEPI[Sar]QERAA-OH) | Yes
CC[C@H](C)[C@H](N)C(=O)N[C@@H](C)C(=O)N[C@@H](CC(C)C)C(=O)N[C@H](C(=O)N[C@@H](CC(C)C)C(=O)N(C)CC(=O)N1CCC[C@H]1C(=O)N[C@H](C(=O)N[C@@H](CS)C(=O)N[C@@H](CS)C(=O)N[C@@H](CCC(N)=O)C(=O)N[C@@H](CCC(=O)O)C(=O)N[C@@H](CCCNC(=N)N)C(=O)N[C@@H](C)C(=O)N[C@@H](C)C(=O)NCCOCCOCCOCCOCCOCCOCCOCCOCCOCCOCCOCCOCCOCCOCCOCCOCCOCCOCCOCCOCCOCCOCCOCCOCCC(=O)O)[C@@H](C)CC)[C@@H](C)CC [PA-E6Sar-dPEG24] | Yes
CC[C@H](C)[C@H](N)C(=O)N[C@@H](C)C(=O)N[C@@H](CC(C)C)C(=O)N[C@H](C(=O)N[C@@H](CC(C)C)C(=O)N[C@@H](CCC(=O)O)C(=O)N(C)CC(=O)N[C@H](C(=O)N(C)CC(=O)N[C@@H](CS)C(=O)N[C@@H](CCC(N)=O)C(=O)N[C@@H](CCC(=O)O)C(=O)N[C@@H](CCCNC(=N)N)C(=O)N[C@@H](C)C(=O)N[C@@H](C)C(=O)O)[C@@H](C)CC)[C@@H](C)CC [PA-P7SarC9Sar, IALILE(Sar)I(Sar)CQERAA] (H-IALILE[Sar]I[Sar]CQERAA-OH) | Yes
CC[C@H](C)[C@H](N)C(=O)N[C@@H](C)C(=O)N[C@@H](CC(C)C)C(=O)N[C@H](C(=O)N[C@@H](CC(C)C)C(=O)N[C@@H](CCC(=O)O)C(=O)N1CCC[C@H]1C(=O)N[C@H](C(=O)N[C@@H](CS)C(=O)N[C@@H](CS)C(=O)N(C)CC(=O)N[C@@H](CCC(=O)O)C(=O)N[C@@H](CCCNC(=N)N)C(=O)N[C@@H](C)C(=O)N[C@@H](C)C(=O)NCCOCCOCCOCCOCCOCCOCCOCCOCCOCCOCCOCCOCCOCCOCCOCCOCCOCCOCCOCCOCCOCCOCCOCCOCCC(=O)O)[C@@H](C)CC)[C@@H](C)CC [PA-Q11Sar-dPEG24] | Yes
CC[C@H](C)[C@H](N)C(=O)N[C@@H](C)C(=O)N[C@@H](CC(C)C)C(=O)N[C@H](C(=O)N[C@@H](CC(C)C)C(=O)N[C@@H](CCC(=O)O)C(=O)N1CCC[C@H]1C(=O)N[C@H](C(=O)N[C@@H](CS)C(=O)N[C@@H](CS)C(=O)N[C@@H](CCC(N)=O)C(=O)N[C@@H](CCC(=O)O)C(=O)N(C)CC(=O)N[C@@H](C)C(=O)N[C@@H](C)C(=O)NCCOCCOCCOCCOCCOCCOCCOCCOCCOCCOCCOCCOCCOCCOCCOCCOCCOCCOCCOCCOCCOCCOCCOCCOCCC(=O)O)[C@@H](C)CC)[C@@H](C)CC [PA-R13Sar-dPEG24] | Yes
CC[C@H](C)[C@H](N)C(=O)N[C@@H](C)C(=O)N[C@@H](CC(C)C)C(=O)N[C@H](C(=O)N[C@@H](CC(C)C)C(=O)N[C@@H](CCC(=O)O)C(=O)N1CCC[C@H]1C(=O)N[C@H](C(=O)N(C)CC(=O)N[C@@H](CS)C(=O)N[C@@H](CCC(N)=O)C(=O)N[C@@H](CCC(=O)O)C(=O)N[C@@H](CCCNC(=N)N)C(=O)N(C)CC(=O)N[C@@H](C)C(=O)O)[C@@H](C)CC)[C@@H](C)CC [Peptide A14SarC9Sar] (H-IALILEPI[Sar]CQER[Sar]A-OH) | No
CC[C@H](C)[C@H](N)C(=O)N[C@@H](C)C(=O)N[C@@H](CC(C)C)C(=O)N[C@H](C(=O)N[C@@H](CC(C)C)C(=O)N[C@@H](CCC(=O)O)C(=O)N(C)CC(=O)N[C@H](C(=O)N[C@@H](CS)C(=O)N[C@@H](CS)C(=O)N[C@@H](CCC(N)=O)C(=O)N[C@@H](CCC(=O)O)C(=O)N[C@@H](CCCNC(=N)N)C(=O)N(C)CC(=O)N[C@@H](C)C(=O)O)[C@@H](C)CC)[C@@H](C)CC [Peptide A14SarP7Sar, IALILE(Sar)ICCQER(Sar)A] (H-IALILE[Sar]ICCQER[Sar]A-OH; N-terminus and C-terminus assumed) | Yes
CC[C@H](C)[C@H](N)C(=O)N[C@@H](C)C(=O)N[C@@H](CC(C)C)C(=O)N[C@H](C(=O)N[C@@H](CC(C)C)C(=O)N[C@@H](C)C(=O)N1CCC[C@H]1C(=O)N[C@H](C(=O)N(C)CC(=O)N[C@@H](CS)C(=O)N[C@@H](CCC(N)=O)C(=O)N[C@@H](C)C(=O)N[C@@H](CCCNC(=N)N)C(=O)N[C@@H](C)C(=O)N[C@@H](C)C(=O)O)[C@@H](C)CC)[C@@H](C)CC [Peptide E6AE12AC9Sar] (H-IALILAPI[Sar]CQARAA-OH) | No
CC[C@H](C)[C@H](N)C(=O)N[C@@H](C)C(=O)N[C@@H](CC(C)C)C(=O)N[C@H](C(=O)N[C@@H](CC(C)C)C(=O)N[C@@H](C)C(=O)N(C)CC(=O)N[C@H](C(=O)N[C@@H](CS)C(=O)N[C@@H](CS)C(=O)N[C@@H](CCC(N)=O)C(=O)N[C@@H](C)C(=O)N[C@@H](CCCNC(=N)N)C(=O)N[C@@H](C)C(=O)N[C@@H](C)C(=O)O)[C@@H](C)CC)[C@@H](C)CC [Peptide E6AE12AP7Sar] (H-IALILA[Sar]ICCQARAA-OH; N-terminus and C-terminus assumed) | Yes
CC[C@H](C)[C@H](N)C(=O)N[C@@H](C)C(=O)N[C@@H](CC(C)C)C(=O)N[C@H](C(=O)N[C@@H](CC(C)C)C(=O)N(C)CC(=O)N1CCC[C@H]1C(=O)N[C@H](C(=O)N(C)CC(=O)N[C@@H](CS)C(=O)N[C@@H](CCC(N)=O)C(=O)N[C@@H](CCC(=O)O)C(=O)N[C@@H](CCCNC(=N)N)C(=O)N[C@@H](C)C(=O)N[C@@H](C)C(=O)O)[C@@H](C)CC)[C@@H](C)CC [Peptide E6SarC9Sar, IALIL(Sar)PI(Sar)CQERAA] (H-IALIL[Sar]PI[Sar]CQERAA-OH) | Yes
CC[C@H](C)[C@H](N)C(=O)N[C@@H](C)C(=O)N[C@@H](CC(C)C)C(=O)N[C@H](C(=O)N[C@@H](CC(C)C)C(=O)N(C)CC(=O)N(C)CC(=O)N[C@H](C(=O)N[C@@H](CS)C(=O)N[C@@H](CS)C(=O)N[C@@H](CCC(N)=O)C(=O)N[C@@H](CCC(=O)O)C(=O)N[C@@H](CCCNC(=N)N)C(=O)N[C@@H](C)C(=O)N[C@@H](C)C(=O)O)[C@@H](C)CC)[C@@H](C)CC [Peptide E6SarP7Sar] (H-IALIL[Sar][Sar]ICCQERAA-OH; N-terminus and C-terminus assumed) | Yes
CC[C@H](C)[C@H](N)C(=O)N[C@@H](C)C(=O)N[C@@H](CC(C)C)C(=O)N[C@H](C(=O)N[C@@H](CC(C)C)C(=O)N[C@@H](CCC(=O)O)C(=O)N1CCC[C@H]1C(=O)N[C@H](C(=O)N(C)CC(=O)N[C@@H](CS)C(=O)N(C)CC(=O)N[C@@H](CCC(=O)O)C(=O)N[C@@H](CCCNC(=N)N)C(=O)N[C@@H](C)C(=O)N[C@@H](C)C(=O)O)[C@@H](C)CC)[C@@H](C)CC [Peptide Q11SarC9Sar] (H-IALILEPI[Sar]C[Sar]ERAA-OH) | Yes
CC[C@H](C)[C@H](N)C(=O)N[C@@H](C)C(=O)N[C@@H](CC(C)C)C(=O)N[C@H](C(=O)N[C@@H](CC(C)C)C(=O)N[C@@H](CCC(=O)O)C(=O)N(C)CC(=O)N[C@H](C(=O)N[C@@H](CS)C(=O)N[C@@H](CS)C(=O)N(C)CC(=O)N[C@@H](CCC(=O)O)C(=O)N[C@@H](CCCNC(=N)N)C(=O)N[C@@H](C)C(=O)N[C@@H](C)C(=O)O)[C@@H](C)CC)[C@@H](C)CC [Peptide Q11SarP7Sar, IALILE(Sar)ICC(Sar)ERAA] (H-IALILE[Sar]ICC[Sar]ERAA-OH; N-terminus and C-terminus assumed) | Yes
CC[C@H](C)[C@H](N)C(=O)N[C@@H](C)C(=O)N[C@@H](CC(C)C)C(=O)N[C@H](C(=O)N[C@@H](CC(C)C)C(=O)N[C@@H](CCC(=O)O)C(=O)N1CCC[C@H]1C(=O)N[C@H](C(=O)N(C)CC(=O)N[C@@H](CS)C(=O)N[C@@H](CCC(N)=O)C(=O)N[C@@H](CCC(=O)O)C(=O)N(C)CC(=O)N[C@@H](C)C(=O)N[C@@H](C)C(=O)O)[C@@H](C)CC)[C@@H](C)CC [Peptide R13SarC9Sar] (H-IALILEPI[Sar]CQE[Sar]AA-OH) | No
